pIC50, pKi: −log10 of the molar value.

In general, pIC50 refers to the negative decadic logarithm of the IC50, by convention in mol/L. Usually pKi stands for −log10 of the Ki, conventionally taken in molar units. One may read the bioavailability as dose-corrected exposure relative to a reference, in per cent. A word on the half-life: it is the time in which the quantity being followed falls by half. For orientation: AUC means concentration integrated over time. The term Cmax denotes the maximum level reached in the sampled fluid or tissue.

Series [1] deals with Rattus norvegicus. Description: Antidepressant activity in Wistar rat assessed as immobility time at 45 mg/kg, ip measured for 5 mins by forced swim test (reference value: 271.9 +/- 7.2 sec). The format is functional.
The target in a further series is Cytochrome P450 2D6 (Homo sapiens, UniProt P10635). Description: Inhibition of CYP2D6 in human liver microsomes using dextromethorphan as substrate incubated for 12 min in presence of NADPH by LC-MS/MS analysis. The format is ADME. In general terms: Microsomes from liver hold many membrane-bound enzymes, among them those of drug oxidation.
Series [2] addresses Neuronal acetylcholine receptor; alpha4/beta2 (Homo sapiens, UniProt P17787+P43681). Description: Displacement of [3H]cytisine from human alpha4beta2 nAChR expressed in CHOK1 cell membrane by microbeta scintillation counting method. The series is classed as cell membranes, CHO-K1. In general terms: Displacement assays read how much labelled ligand stays bound in the presence of the test substance.

In series [3] the target is Neuronal acetylcholine receptor; alpha3/beta4 (Homo sapiens, UniProt P30926+P32297). Description: Displacement of [3H]epibatidine from human alpha3beta4 nAChR expressed in IMR32 cell membrane by microbeta scintillation counting method. The format is cell membranes, IMR-32.
The nature of series [4]: Metabolic stability in rat liver microsomes assessed as compound metabolism incubated for 30 mins in presence of NADPH by LC-MS/MS analysis. The series is classed as ADME, Microsome. Particulars: read-out: Drug metabolism.
Series [5] can be described thus: Ratio of drug level in brain to plasma in Wistar rat at 10 ml/kg, po or 2 ml/kg, iv measured upto 24 hrs by LC-MS/MS analysis. The format is ADME, organism-based. Conditions: brain and plasma, read-out: BPR.
Series [6] is described as follows: Oral bioavailability in Wistar rat at 10 ml/kg measured upto 24 hrs by LC-MS/MS analysis. The series is classed as ADME, organism-based. Particulars: in vivo.
Series [7] is described as follows: Half life in Wistar rat at 10 ml/kg, po or 2 ml/kg, iv measured upto 24 hrs by LC-MS/MS analysis. The series is classed as ADME, organism-based. Particulars: in vivo.
The nature of series [8]: AUC in Wistar rat at 10 ml/kg, po or 2 ml/kg, iv measured upto 24 hrs by LC-MS/MS analysis. The series is classed as ADME, organism-based. Particulars: in vivo.
The target in the next series is Cytochrome P450 3A4 (Homo sapiens, UniProt P08684). Description: Inhibition of CYP3A4 in human liver microsomes using midazolam as substrate incubated for 2 min in presence of NADPH by LC-MS/MS analysis. The series is classed as ADME.
Series [9] in a line: Cmax in Wistar rat at 10 ml/kg, po or 2 ml/kg, iv measured upto 24 hrs by LC-MS/MS analysis. The format is ADME, organism-based. Particulars: in vivo.
Series [10] in a line: Metabolic stability in human liver microsomes assessed as compound metabolism incubated for 30 mins in presence of NADPH by LC-MS/MS analysis. The series is classed as ADME, Microsome. Particulars: read-out: Drug metabolism.
The subject of series [11] is Rattus norvegicus. Description: Antidepressant activity in Wistar rat assessed as reduction in immobility at 10 mg/kg, po administrated for 3 days and measured for 5 mins by forced swim test relative to control. The series is classed as functional. Also noted: scale not given: the % may be the effect or the level left.
Series [12] relates to Rattus norvegicus. Description: Antidepressant activity in Wistar rat assessed as reduction in immobility at 1 mg/kg, po administrated for 3 days and measured for 5 mins by forced swim test relative to control. More on the design: scale not given: the % may be the effect or the level left. The series is classed as functional.
The test system of series [13] is Rattus norvegicus. In words: Antidepressant activity in Wistar rat assessed as reduction in immobility at 3 mg/kg, po administrated for 3 days and measured for 5 mins by forced swim test relative to control. The series is classed as functional. More on the design: scale not given: the % may be the effect or the level left.
For series [14], the system named is Rattus norvegicus. Description: Antidepressant activity in Wistar rat assessed as immobility time at 3.0 mg/kg, po measured for 5 mins by forced swim test (reference value: 241.9 to 281.6 sec). The format is functional.
Series [15] has as its system Rattus norvegicus. Description: Antidepressant activity in Wistar rat assessed as immobility time at 10.0 mg/kg, po measured for 5 mins by forced swim test (reference value: 241.9 to 281.6 sec). The series is classed as functional.

Cytochrome P450 3A4, sequence (P08684 whole entry): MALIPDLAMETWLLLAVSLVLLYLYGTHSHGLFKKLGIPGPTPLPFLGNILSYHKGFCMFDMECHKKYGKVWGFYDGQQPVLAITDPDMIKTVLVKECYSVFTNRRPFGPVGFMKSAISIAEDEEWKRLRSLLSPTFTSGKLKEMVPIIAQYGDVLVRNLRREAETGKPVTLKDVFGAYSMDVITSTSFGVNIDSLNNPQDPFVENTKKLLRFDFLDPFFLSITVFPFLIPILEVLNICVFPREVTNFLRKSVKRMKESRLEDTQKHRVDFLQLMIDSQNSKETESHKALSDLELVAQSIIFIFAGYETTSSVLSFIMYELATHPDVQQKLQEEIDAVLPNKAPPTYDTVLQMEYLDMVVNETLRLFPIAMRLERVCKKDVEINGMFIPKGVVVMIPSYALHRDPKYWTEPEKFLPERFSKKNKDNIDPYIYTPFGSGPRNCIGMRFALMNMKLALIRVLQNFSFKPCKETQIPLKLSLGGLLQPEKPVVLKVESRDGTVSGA
Neuronal acetylcholine receptor; alpha4/beta2, sequence (P17787 whole entry): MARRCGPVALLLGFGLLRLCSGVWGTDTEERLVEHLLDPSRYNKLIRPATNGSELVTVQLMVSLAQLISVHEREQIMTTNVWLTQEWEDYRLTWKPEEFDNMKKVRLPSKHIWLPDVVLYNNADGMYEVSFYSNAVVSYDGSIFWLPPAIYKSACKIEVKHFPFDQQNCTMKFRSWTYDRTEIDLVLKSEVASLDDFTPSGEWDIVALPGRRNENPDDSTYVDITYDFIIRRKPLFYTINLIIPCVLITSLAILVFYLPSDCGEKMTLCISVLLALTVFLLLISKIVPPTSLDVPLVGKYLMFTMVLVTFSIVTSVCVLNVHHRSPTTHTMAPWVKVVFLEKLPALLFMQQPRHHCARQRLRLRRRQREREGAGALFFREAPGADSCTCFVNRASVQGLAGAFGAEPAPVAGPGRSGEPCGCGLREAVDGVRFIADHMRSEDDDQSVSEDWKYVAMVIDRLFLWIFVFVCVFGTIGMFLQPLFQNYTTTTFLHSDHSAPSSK
Neuronal acetylcholine receptor; alpha4/beta2, sequence (P43681 whole entry): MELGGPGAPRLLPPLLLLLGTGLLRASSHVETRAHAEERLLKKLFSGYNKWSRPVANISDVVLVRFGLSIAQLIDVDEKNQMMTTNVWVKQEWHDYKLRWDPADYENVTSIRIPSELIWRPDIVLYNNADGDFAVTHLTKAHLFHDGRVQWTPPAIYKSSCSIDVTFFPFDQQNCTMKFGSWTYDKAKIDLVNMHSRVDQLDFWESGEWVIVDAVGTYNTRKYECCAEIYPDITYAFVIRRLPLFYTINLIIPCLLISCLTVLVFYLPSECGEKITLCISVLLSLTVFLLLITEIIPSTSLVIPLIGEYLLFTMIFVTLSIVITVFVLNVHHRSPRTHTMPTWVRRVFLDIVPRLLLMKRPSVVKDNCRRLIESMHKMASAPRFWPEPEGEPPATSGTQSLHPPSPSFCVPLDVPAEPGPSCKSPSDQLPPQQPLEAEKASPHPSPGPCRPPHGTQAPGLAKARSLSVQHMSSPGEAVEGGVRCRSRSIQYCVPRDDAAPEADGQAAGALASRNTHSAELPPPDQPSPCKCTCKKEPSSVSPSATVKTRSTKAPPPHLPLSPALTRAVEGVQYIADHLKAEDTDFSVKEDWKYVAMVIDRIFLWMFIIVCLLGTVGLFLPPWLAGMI
Cytochrome P450 2D6, sequence (P10635 whole entry): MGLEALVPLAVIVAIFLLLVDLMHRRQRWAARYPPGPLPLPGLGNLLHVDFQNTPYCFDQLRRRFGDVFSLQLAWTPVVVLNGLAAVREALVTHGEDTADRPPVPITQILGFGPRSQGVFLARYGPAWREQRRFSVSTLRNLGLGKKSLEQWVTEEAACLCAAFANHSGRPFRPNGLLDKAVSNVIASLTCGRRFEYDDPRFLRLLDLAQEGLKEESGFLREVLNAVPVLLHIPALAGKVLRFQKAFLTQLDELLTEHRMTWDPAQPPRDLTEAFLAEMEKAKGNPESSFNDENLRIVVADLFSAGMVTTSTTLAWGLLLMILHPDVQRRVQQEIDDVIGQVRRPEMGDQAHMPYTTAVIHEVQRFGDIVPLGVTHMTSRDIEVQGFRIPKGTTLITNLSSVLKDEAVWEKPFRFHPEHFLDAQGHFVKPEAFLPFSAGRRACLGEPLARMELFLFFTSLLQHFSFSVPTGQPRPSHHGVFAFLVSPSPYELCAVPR
Neuronal acetylcholine receptor; alpha3/beta4, sequence (P30926 whole entry): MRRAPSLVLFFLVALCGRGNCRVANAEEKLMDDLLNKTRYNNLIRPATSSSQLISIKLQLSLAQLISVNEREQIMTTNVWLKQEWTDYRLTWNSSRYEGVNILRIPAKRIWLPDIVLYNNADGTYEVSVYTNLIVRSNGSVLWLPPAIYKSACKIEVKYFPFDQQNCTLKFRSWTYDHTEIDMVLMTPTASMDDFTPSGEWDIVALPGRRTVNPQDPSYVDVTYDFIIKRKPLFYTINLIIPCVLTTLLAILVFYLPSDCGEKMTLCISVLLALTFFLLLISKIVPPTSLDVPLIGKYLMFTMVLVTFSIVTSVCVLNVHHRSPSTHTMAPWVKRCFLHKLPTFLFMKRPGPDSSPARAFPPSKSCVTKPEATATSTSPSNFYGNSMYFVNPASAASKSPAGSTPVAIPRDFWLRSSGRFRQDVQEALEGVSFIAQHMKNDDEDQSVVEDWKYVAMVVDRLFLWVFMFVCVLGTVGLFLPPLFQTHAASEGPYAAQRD
Neuronal acetylcholine receptor; alpha3/beta4, sequence (P32297 whole entry): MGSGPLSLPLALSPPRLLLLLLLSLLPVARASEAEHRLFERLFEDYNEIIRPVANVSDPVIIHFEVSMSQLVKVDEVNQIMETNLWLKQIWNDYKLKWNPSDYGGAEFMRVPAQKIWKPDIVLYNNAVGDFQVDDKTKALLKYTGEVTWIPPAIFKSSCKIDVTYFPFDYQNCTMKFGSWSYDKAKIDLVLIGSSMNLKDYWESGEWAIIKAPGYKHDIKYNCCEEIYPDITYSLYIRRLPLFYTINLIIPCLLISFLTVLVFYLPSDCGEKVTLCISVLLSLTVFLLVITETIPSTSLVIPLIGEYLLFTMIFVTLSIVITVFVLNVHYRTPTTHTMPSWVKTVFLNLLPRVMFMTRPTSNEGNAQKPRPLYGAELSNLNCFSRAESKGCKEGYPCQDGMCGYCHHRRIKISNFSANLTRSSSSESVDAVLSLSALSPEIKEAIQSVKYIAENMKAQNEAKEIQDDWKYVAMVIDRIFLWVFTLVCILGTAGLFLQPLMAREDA

For the molecule `CN(C)CCCN1c2ccccc2CCc2ccccc21` [IMIPRAMINE], in the series with Rattus norvegicus [1], the Time amounted to 176.5 s.

As to `Cl.Clc1ncccc1OC[C@@H]1C[C@H]2C[C@H]2N1`, the figures for the pIC50 at Cytochrome P450 2D6 and on Cytochrome P450 3A4 were less than 4.38 and less than 4.35, respectively. For the same molecule, the figures for the pKi in [2] and in series [3] were 7.76 and less than 5.00, respectively. Besides, the metabolised at 0.5 h in series [4] stood at 14.9%; in series [10], 29.5%. The Kp at 24 h in series [5] turned out to be 3.6. This molecule also showed a bioavailability in [6] of 54%. In addition, in series [7], the half-life was 2.15 h. In series [8], this molecule returned an area under the curve (AUC) at 24 h of 2160 ng·h/mL. Moreover, the maximum concentration (Cmax) in series [9] was 921 ng/mL. In addition, the Activity in the series on Rattus norvegicus [11] amounted to 15.8%; with Rattus norvegicus [12], 10%; in the series with Rattus norvegicus [13], 24.7%.

Take `Cl.Fc1ccc(OC[C@@H]2C[C@H]3C[C@H]3N2)cn1`: the pIC50 at Cytochrome P450 2D6 and on Cytochrome P450 3A4 was less than 4.35 throughout. The pKi is 8.41 in series [2] and less than 5.00 in series [3]. In addition, the figures for the metabolised at 0.5 h in [4] and in series [10] were 5.1% and 10.7%, respectively. In addition, in series [5], the Kp at 24 h turned out to be 2.38. The molecule further came in with a bioavailability in [6] of 96%. The half-life in series [7] is 4.02 h. In addition, the results for the Time with Rattus norvegicus [14] and in the series on Rattus norvegicus [15] were 259.6 s and 263.5 s, respectively. This molecule also showed an AUC at 24 h in series [8] of 15600 ng·h/mL. The same molecule yielded a Cmax in series [9] of 3760 ng/mL.

Consider `Cl.Clc1ccc(OC[C@H]2C[C@@H]3C[C@@H]3N2)cn1`, for which the results for the pIC50 at Cytochrome P450 2D6 and on Cytochrome P450 3A4 were 4.77 and less than 4.35, respectively. The pKi in series [2] was 7.41; in series [3], 5.22. Further, the results for the metabolised at 0.5 h in [4] and in series [10] were 26.2% and 42.2%, respectively. Moreover, the Kp at 24 h in [5] was found to be 3.83. The same molecule came in with a bioavailability in series [6] of 35%. The molecule further showed a half-life in series [7] of 1.6 h. Moreover, the Time stood at 256.8 s in the series with Rattus norvegicus [14] and 279 s in the series with Rattus norvegicus [15]. For the same molecule, the area under the curve (AUC) at 24 h in series [8] was determined as 1770 ng·h/mL. In addition, in series [9], the peak level (Cmax) was 1190 ng/mL.

Consider `Cl.c1cncc(OC[C@@H]2C[C@H]3C[C@H]3N2)c1`, for which the figures for the negative logarithm of the IC50 (pIC50) at Cytochrome P450 2D6 and at Cytochrome P450 3A4 were 4.58 and less than 4.35, respectively. The pKi in series [2] is 8.10; in series [3], less than 5.00. Moreover, the metabolised at 0.5 h in series [4] is 17.9%; in [10], 12.1%. The Kp at 24 h in series [5] came out at 3.8. This molecule returned a bioavailability in series [6] of 92%. Besides, in [7], the half-life was 4.19 h. The Time in the series with Rattus norvegicus [14] is recorded as 231 s; in the series with Rattus norvegicus [15], 210.4 s. Further, the exposure (AUC) at 24 h in series [8] is 10900 ng·h/mL. In series [9], this molecule came in with a Cmax of 7610 ng/mL.

These data come from ChEMBL document CHEMBL4602676, “Discovery and Development of 3-(6-Chloropyridine-3-yloxymethyl)-2-azabicyclo[3.1.0]hexane Hydrochloride (SUVN-911): A Novel, Potent, Selective, and Orally Active Neuronal Nicotinic Acetylcholine α4β2 Receptor Antagonist for the Treatment of Depression” (J Med Chem, 2020).
